Our source for the IC50 values is ChEMBL document CHEMBL1201862, “PubChem BioAssay data set” (2004).

Molecules are shown by their SMILES. The source made the active and inactive calls. Rule as the data show it: actives have a measured IC50 and inactives only a lower limit.

For the assay, the target named is Envelope glycoprotein gp160 (Human immunodeficiency virus 1, UniProt Q6QLK5). The experiment in a line: cell-free HIV fusion peptide-binding blockers – biochemical, uHTS, fluorescence dequenching, […] (AID 1986).
Chain of Envelope glycoprotein gp160 (Q6QLK5 whole entry, the tested form may be a part): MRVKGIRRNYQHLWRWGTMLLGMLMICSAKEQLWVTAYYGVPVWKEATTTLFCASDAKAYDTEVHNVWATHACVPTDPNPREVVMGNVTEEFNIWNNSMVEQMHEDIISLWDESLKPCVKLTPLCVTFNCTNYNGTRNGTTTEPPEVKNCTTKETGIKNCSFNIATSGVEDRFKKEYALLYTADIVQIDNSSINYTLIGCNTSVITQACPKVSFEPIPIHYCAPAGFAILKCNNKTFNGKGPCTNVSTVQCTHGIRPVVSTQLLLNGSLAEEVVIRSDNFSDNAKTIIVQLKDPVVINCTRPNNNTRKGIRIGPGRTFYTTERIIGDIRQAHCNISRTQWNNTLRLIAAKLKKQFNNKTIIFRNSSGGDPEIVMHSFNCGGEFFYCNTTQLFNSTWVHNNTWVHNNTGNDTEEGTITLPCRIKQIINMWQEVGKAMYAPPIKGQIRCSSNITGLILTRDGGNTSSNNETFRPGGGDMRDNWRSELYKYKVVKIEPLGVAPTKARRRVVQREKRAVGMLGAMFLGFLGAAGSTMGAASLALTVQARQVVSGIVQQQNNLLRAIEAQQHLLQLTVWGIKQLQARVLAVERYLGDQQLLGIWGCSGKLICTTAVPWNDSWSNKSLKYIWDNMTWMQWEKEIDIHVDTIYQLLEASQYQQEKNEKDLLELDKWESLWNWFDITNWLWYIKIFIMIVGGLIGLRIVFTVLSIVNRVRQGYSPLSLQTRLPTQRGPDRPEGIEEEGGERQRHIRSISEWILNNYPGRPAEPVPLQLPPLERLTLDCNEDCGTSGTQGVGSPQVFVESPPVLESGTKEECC
Regarding `COc1cc(/C=C2/SC(=S)NC2=O)ccc1OS(=O)(=O)c1ccc(C)cc1`, the 50% inhibitory concentration (IC50) (in general, the point on the concentration scale where inhibition reaches its midpoint) is 16.5 µM (active). The result for `O=C(O)c1cc(-c2ccc(-c3c(-c4ccc5c(c4)OCO5)noc3-c3ccsc3)cc2)nc2ccccc12` reads 52.2 µM (active). The result for `O=C(Nc1cc(S(=O)(=O)N2CCCCC2)ccc1Cl)c1ccccc1NS(=O)(=O)c1ccc(F)cc1` reads 13.4 µM (active); that for `O=C(CCN1C(=O)/C(=C\C=C\c2ccccc2)SC1=S)Nc1ccccc1C(=O)O`, 20.2 µM (active).

For `O=C(O)COc1ccccc1/C=N/Nc1ccc(S(=O)(=O)Nc2ccc(Cl)cc2)cc1[N+](=O)[O-]`, the IC50 was 19.6 µM (active).
